Results taken from patent US12378208B2, “N-substituted oseltamivir derivatives with antimicrobial activity” (THE HONG KONG POLYTECHNIC UNIVERSITY, priority 2019, dated 2025).

Tests used:
IBV 12v33261 = assay: Plaque assay in MDCK cells; assay type: cell-based, influenza B virus; conditions: for plaque size: MDCK, day 3, vs DMSO vehicle, both concentrations
[1] = system: influenza B virus (IBV) 12v28393; assay: Plaque assay in MDCK cells; assay type: cell-based; conditions: for plaque size: MDCK, day 3, vs DMSO vehicle, both concentrations
IBV 12v33280 = assay: Plaque assay in MDCK cells; assay type: cell-based, influenza B virus; conditions: for plaque size: MDCK, day 3, vs DMSO vehicle, both concentrations
NA from A/H3N2 = NA from A/H3N2 (Influenza A virus, UniProt O91745); assay: biochemical; assay type: biochemical, seasonal A/H3N2
Sequence of NA from A/H3N2 (O91745 whole entry, looked up): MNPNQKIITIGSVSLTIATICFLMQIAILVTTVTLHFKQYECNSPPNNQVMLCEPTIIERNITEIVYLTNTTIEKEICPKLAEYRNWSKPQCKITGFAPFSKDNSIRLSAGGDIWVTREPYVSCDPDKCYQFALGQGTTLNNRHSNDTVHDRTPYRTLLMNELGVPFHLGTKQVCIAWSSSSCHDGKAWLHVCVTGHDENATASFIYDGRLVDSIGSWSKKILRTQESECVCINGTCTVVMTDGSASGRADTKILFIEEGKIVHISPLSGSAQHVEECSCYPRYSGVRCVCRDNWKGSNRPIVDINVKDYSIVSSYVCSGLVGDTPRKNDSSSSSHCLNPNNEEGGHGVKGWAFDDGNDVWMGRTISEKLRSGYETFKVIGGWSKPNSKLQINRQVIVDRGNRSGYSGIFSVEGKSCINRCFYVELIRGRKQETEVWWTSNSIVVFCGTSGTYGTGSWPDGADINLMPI

[2] = system: influenza A virus A/OK/447/08 (H1N1); assay: Plaque assay in MDCK cells; assay type: cell-based; conditions: for plaque count: two concentrations; for plaque size compared with 0.2 nM oseltamivir: both compounds at both concentrations vs 0.2 nM oseltamivir
neuraminidase = neuraminidase (Influenza A virus, UniProt O91745); conditions: previous studies (Ye et al., 2019); read-out: half maximal inhibitory concentration (IC50); cited from earlier work
Sequence of neuraminidase (O91745 whole entry): as the sequence (O91745 whole entry, looked up) above

[3] = 3.2 nM S22 vs 0.2 nM oseltamivir (p<0.01)

Structure (SMILES)	Inhibition rate, 1 μM (NA from A/H3N2) [%]	Inhibition rate, 10 μM (NA from A/H3N2) [%]	further results
CCC(CC)O[C@@H]1C=C(C(=O)O)C[C@H](NCc2noc(-c3ccco3)n2)[C@H]1NC(C)=O [Compound S7, (3R,4R,5S)-4-acetamido-5-(((5-(furan-2-yl)-1,2,4-oxadiazol-3-yl)methyl)amino)-3-(pentan-3-yloxy)cyclohex-1-ene-1-carboxylic acid]	–	–	plaque size (IBV 12v33261): significantly reduce the plaque size; inhibition compared with 3.2 nM S22 ([1]; 3.8 nM S7 vs 3.2 nM S22 (p<0.05)): extra benefit; plaque size [1]: significantly reduce the plaque size; plaque size (IBV 12v33280): significantly reduce the plaque size; % Inhibition (1 nM) (NA from A/H3N2): 28.1 ± 1.7%; IC50 (NA from A/H3N2; Table 2, Example 32): 1.92 ± 0.24 nM; plaque count ([2]; […]): not plaque count; plaque size compared with 0.2 nM oseltamivir [2]: equally well; IC50 (neuraminidase): 1.9 nM
CCC(CC)O[C@@H]1C=C(C(=O)O)C[C@H](NCc2ccc(-c3c(C)noc3C)o2)[C@H]1NC(C)=O [Compound S22, (3R,4R,5S)-4-acetamido-5-(((5-(3,5-dimethylisoxazol-4-yl)furan-2-yl)methyl)amino)-3-(pentan-3-yloxy)cyclohex-1-ene-1-carboxylic acid]	–	–	plaque size compared with 0.2 nM oseltamivir (IBV 12v33261; 3.2 nM S22 vs 0.2 nM oseltamivir (p<0.05)): better inhibition effect; plaque size (IBV 12v33261): significantly reduce the plaque size; plaque size compared with 0.2 nM oseltamivir [1, 3]: better inhibition effect; plaque size [1]: significantly reduce the plaque size; plaque size compared with 0.2 nM oseltamivir (IBV 12v33280; 1.6 nM S22 vs 0.2 nM oseltamivir (p<0.05)): extra benefit; inhibition compared with 1.9 nM S7 (IBV 12v33280; 1.6 nM S22 vs 1.9 nM S7 (p<0.05)): better; plaque size compared with 0.2 nM oseltamivir (IBV 12v33280; [3]): better inhibition effect; inhibition compared with 1.9 nM S7 (IBV 12v33280; 3.2 nM S22 vs 1.9 nM S7 (p<0.01)): better; plaque size (IBV 12v33280): significantly reduce the plaque size; % Inhibition (1 nM) (NA from A/H3N2): 30.2 ± 1.5%; IC50 (NA from A/H3N2; Table 2, Example 32): 1.63 ± 0.16 nM; plaque count ([2]; […]): not plaque count; plaque size compared with 0.2 nM oseltamivir [2]: equally well; IC50 (neuraminidase): 1.6 nM
CCC(CC)O[C@@H]1C=C(C(=O)O)C[C@H](NC(=O)c2cc(-c3cccs3)n[nH]2)[C@H]1NC(C)=O [OC-014]	21.57	40.02	–
CCC(CC)O[C@@H]1C=C(C(=O)O)C[C@H](NC(=O)c2cc(-c3ccc(Cl)cc3)nn2CC2CC2)[C@H]1NC(C)=O [OC-015]	16.52	31.50	–
CCC(CC)O[C@@H]1C=C(C(=O)O)C[C@H](NC(=O)c2cnn(-c3ccccc3C)c2)[C@H]1NC(C)=O [OC-016]	12.74	38.37	–
CCC(CC)O[C@@H]1C=C(C(=O)O)C[C@H](NC(=O)c2cc(-c3ccc(OC)cc3)n[nH]2)[C@H]1NC(C)=O [OC-017]	14.83	42.02	–
CCC(CC)O[C@@H]1C=C(C(=O)O)C[C@H](NC(=O)c2cc(-c3ccc(Cl)cc3)nn2CC2CCC2)[C@H]1NC(C)=O [OC-018]	11.12	39.81	–
CCC(CC)O[C@@H]1C=C(C(=O)O)C[C@H](NC(=O)c2cc(-c3ccc(Cl)cc3)nn2CC2CCCCC2)[C@H]1NC(C)=O [OC-019]	11.62	48.50	–
CCC(CC)O[C@@H]1C=C(C(=O)O)C[C@H](NC(=O)c2cc(C3CC3)n(-c3ccc(C(F)(F)F)cc3)n2)[C@H]1NC(C)=O [OC-020]	8.26	44.47	–
CCC(CC)O[C@@H]1C=C(C(=O)O)C[C@H](NC(=O)c2cc(C3CC3)n(-c3ccccc3)n2)[C@H]1NC(C)=O [OC-021]	7.13	30.57	–
CCC(CC)O[C@@H]1C=C(C(=O)O)C[C@H](NC(=O)c2cnn(-c3ccc(OC)cc3)c2)[C@H]1NC(C)=O [OC-022]	6.31	34.15	–
CCC(CC)O[C@@H]1C=C(C(=O)O)C[C@H](NC(=O)c2cc(C3CC3)n(-c3cccc(C)c3)n2)[C@H]1NC(C)=O [OC-023]	6.24	34.75	–
CCC(CC)O[C@@H]1C=C(C(=O)O)C[C@H](NC(=O)c2cc(C3CC3)n(-c3ccc(Br)cc3)n2)[C@H]1NC(C)=O [OC-024]	5.84	42.68	–
CCC(CC)O[C@@H]1C=C(C(=O)O)C[C@H](NC(=O)c2cc(C3CC3)nn2-c2ccc(Br)cc2)[C@H]1NC(C)=O [OC-025]	2.19	37.17	–
CCC(CC)O[C@@H]1C=C(C(=O)O)C[C@H](NC(=O)c2cnn(-c3ccc(Cl)cc3)c2)[C@H]1NC(C)=O [OC-026]	−0.26	25.67	–
CCC(CC)O[C@@H]1C=C(C(=O)O)C[C@H](NC(=O)c2cc(C3CC3)nn2-c2cccc(C)c2)[C@H]1NC(C)=O [OC-027]	0.70	31.53	–
CCC(CC)O[C@@H]1C=C(C(=O)O)C[C@H](NC(=O)c2cc(C3CC3)n(-c3ccccc3C)n2)[C@H]1NC(C)=O [OC-028]	8.06	60.91	IC50 (NA from A/H3N2; Table 4, Example 34): 22700 nM
CCC(CC)O[C@@H]1C=C(C(=O)O)C[C@H](NC(=O)c2cc(C3CC3)nn2-c2ccccc2C)[C@H]1NC(C)=O [OC-029]	23.28	72.80	IC50 (NA from A/H3N2; Table 4, Example 34): 16900 nM
CCOC(=O)C1=C[C@@H](OC(CC)CC)[C@H](NC(C)=O)[C@@H](N)C1 [oseltamivir]	–	–	plaque count ([2]; […]): not plaque count; plaque size ([2]; […], two concentrations (oseltamivir 0.1/0.2 nM, S7 1.9/3.8 nM, S22 1.6/3.2 nM)): reduction in plaque size; IC50 (neuraminidase): 0.1 nM
